Reference: patent EP0392663A1, “Carboline derivative as a 5-HT3 receptor antagonist” (ONO PHARMACEUTICAL CO., LTD., priority 1989, dated 1990)
Structures can show the parent of a compound that is named as a salt.

How the values were obtained:
[1] = test system: 5-HT₃ receptor; test: Suppression of 5-HT-induced reflex bradycardia in urethane-anesthetized rats (5-HT₃ receptor antagonism in vivo); design: species or system Male Wistar rats; details: 5-HT i.v. 2 mins after
Procedure: Male Wistar rats were urethane-anesthetized and fixed. Cannulas were inserted to carotid artery and thigh vein as used for the recording of blood pressure end heart beat, and for the administration of compounds, respectively.
Several amounts of compound of the present invention were administered to the vein or duodenum. 5-HT was administered rapidly to the vein, 2 mins after. The suppression effect of the compounds was confirmed by the measurement of reflex bradycardia generated. (Nature 316, 11 (1985).)

[2] = Acute toxicity (LD₅₀) in mice; details: mouse, in vivo
Procedure: It was confirmed that the toxicity of the compounds of the present invention were very low. Therefore, the compounds of the present invention may be considered to be sufficiently safe and suitable for pharmaceutical use.
For example, the values of acute toxicity (LD₅₀) of 2-(5-methylimidazol-4-ylmethyl)-5-methyl-1,2-dihydro-γ--carbolin-1-one hydrochloride was 290 mg/kg animal body weight by oral administration and 48 mg/kg animal body weight by intravenous administration in mice, respectively.

`Cc1[nH]cnc1Cn1ccc2c(c1=O)c1ccccc1n2C` [2-(5-methylimidazol-4-ylmethyl)-5-methyl-1,2-dihydro-γ-carbolin-1-one hydrochloride] gave an ID₅₀ i.d. ([1]; compound administered to the duodenum) of 7.7 mg/kg, an ID₅₀ i.v. ([1]; compound administered to the vein) of 0.3 mg/kg and an LD50 ([2]; intravenous administration) of 48 mg/kg. For the same molecule, the LD50 ([2]; oral administration) was 290 mg/kg.
